Among the test systems are IGROV-1; OVCAR-8; HCT-15; OVCAR-4; HOP-62; NCI-H522; A498; SK-MEL-28; UO-31; HCC 2998; Malme-3M; ACHN; NCI-H23; UACC-257; HCT-116; HL-60; HT-29; PC-3; SK-OV-3; COLO 205.
What all share (test): NCI tumour cell line growth inhibition, 48 h

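Each compound was tested at five concentrations against cells in 96-well plates for 48 hours. GI50 is the concentration that inhibits growth by half.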 The source made the active and inactive calls. Rule as the data show it: active = GI50 up to about 1.1 µM and inactive = higher.

Consider `Nc1nc(Cl)c(N)c(NCC2(CO)CCC(CCc3ccccc3)C2)n1` (stereo not given), for which the GI50 is 22.8 µM (inactive) in the assay on IGROV-1; 14 µM (inactive) in the assay with OVCAR-8; 16.1 µM in the assay on HCT-15; 17.3 µM (inactive) with OVCAR-4; 17 µM (inactive) in the assay on HOP-62; 10.4 µM (inactive) with NCI-H522. In addition, the GI50 is 14.6 µM (inactive) with A498; 14.6 µM (inactive) in the assay on SK-MEL-28; 18.4 µM (inactive) in the assay on UO-31; 16.9 µM (inactive) with HCC 2998; 1.83 µM (inactive) in the assay on Malme-3M; 18.7 µM (inactive) with ACHN. Also, the GI50 with NCI-H23 was 0.0435 µM (active); in the assay with UACC-257 it was 0.461 µM (active); with HCT-116, 12.2 µM (inactive); in the assay with HL-60, 3.37 µM (inactive); with HT-29, 13.3 µM (inactive); in the assay with PC-3, 17.3 µM (inactive). Also, the GI50 is 22.3 µM (inactive) in the assay with SK-OV-3 and 9.93 µM (inactive) in the assay with COLO 205.

As to `Br[Se]c1ccccn1`, the GI50 in the assay on IGROV-1 is 17.5 µM (inactive); with OVCAR-8, 19.6 µM (inactive); in the assay on HCT-15, 19 µM; with OVCAR-4, 16.9 µM (inactive); in the assay with HOP-62, 2.48 µM (inactive); in the assay on NCI-H522 it was 16.4 µM (inactive). In addition, the GI50 in the assay on A498 is 17.9 µM (inactive); in the assay with SK-MEL-28, 19.6 µM (inactive); with UO-31, 17.1 µM (inactive); in the assay with HCC 2998 it was 21.1 µM (inactive); in the assay on Malme-3M, 17.4 µM (inactive); with ACHN it was 16.3 µM (inactive). For the same compound, the GI50 was 20.7 µM (inactive) in the assay with NCI-H23; 17.8 µM (inactive) with UACC-257; 18.3 µM (inactive) with HCT-116; 17.6 µM (inactive) with HL-60; 25.3 µM (inactive) with HT-29; 16.4 µM (inactive) with PC-3. For the same compound, the values for the GI50 in the assay on SK-OV-3 and in the assay on COLO 205 were 20.5 µM (inactive) and 17.1 µM (inactive), respectively.

For the compound `CC(C(=O)c1ccncc1)c1ccccn1` (stereo not given), the GI50 in the assay with IGROV-1 was > 100 µM (inactive); with OVCAR-8, > 100 µM (inactive); in the assay with HCT-15, greater than 100 µM; in the assay on OVCAR-4 it was > 100 µM (inactive); with HOP-62, > 100 µM (inactive); with NCI-H522 it was > 100 µM (inactive). Also, the GI50 in the assay on A498, in the assay with SK-MEL-28, with UO-31, with HCC 2998, in the assay with Malme-3M and in the assay with ACHN was > 100 µM (inactive) throughout. In addition, the GI50 with NCI-H23, in the assay on UACC-257, with HCT-116, in the assay on HL-60, with HT-29 and with PC-3 was > 100 µM (inactive) in each case. In addition, the GI50 with SK-OV-3 and in the assay with COLO 205 was > 100 µM (inactive) throughout.

Take `CC(=O)N1N=C(N)CC1=O`: the GI50 in the assay on IGROV-1 was > 100 µM (inactive); in the assay on OVCAR-8 it was > 100 µM (inactive); in the assay with HCT-15, greater than 100 µM; with OVCAR-4, > 100 µM (inactive); in the assay with HOP-62, > 100 µM (inactive); in the assay with NCI-H522, > 100 µM (inactive). The GI50 in the assay with A498, in the assay with SK-MEL-28, in the assay on UO-31, in the assay on HCC 2998, in the assay on Malme-3M and in the assay on ACHN was > 100 µM (inactive) throughout. Also, the GI50 in the assay on NCI-H23, in the assay with UACC-257, in the assay on HCT-116, in the assay with HL-60, with HT-29 and in the assay with PC-3 was > 100 µM (inactive) each time. In addition, the GI50 in the assay with SK-OV-3 and in the assay with COLO 205 was > 100 µM (inactive) each time.
